Structures are written as SMILES. Where a name gives a salt, the structure may show the parent alone.

In assay [1] the target is T1, GST-tagged truncated LRRK2 (Homo sapiens, UniProt Q5S007).
T1 construct: GST-tagged truncated LRRK2 from Invitrogen (Cat # PV4874); GST; purchased Invitrogen PV4874
Description: LRRK2 Assay, Format 2 (Lantha Screen), WT. The assay is classed as biochemical. Particulars: geometric mean of 2-4 determinations unless otherwise indicated (a: >=5; b: single determination). As to the method:
(§1) LRRK2 kinase activity was measured using Lantha Screen technology from Invitrogen. GST-tagged truncated LRRK2 from Invitrogen (Cat # PV4874) was incubated with a fluorescein-labeled peptide substrate based upon ezrin/radixin/moesin (ERM), also known as LRRKtide (Invitrogen cat # PR8976A), in the presence of a dose response of compound. Upon completion, the assay was stopped and detected with a terbium labeled anti-phospho-ERM antibody (Invitrogen, cat # PR8975A). […] Using Echo acoustic dispensing, 60 nL of compound was transferred to a low volume Corning 384-well assay plate. 3 μL of a working solution of substrate (200 nM LRRKtide, […]) prepared in assay buffer (50 mM HEPES, pH 7.5, 3 mM MgCl2, with 2 mM DTT and 0.01% Brij35 added fresh) was added to the 60 nL compound assay plate. The kinase reaction was started with […] of a working solution of LRRK2 enzyme at a concentration of […]. The final reaction concentrations were 100 nM LRRKtide, […], […] LRRK2 enzyme and a compound dose response with a top dose of 3 mM. The reaction was allowed to progress at room temperature for 30 minutes and then stopped with the addition of […] of detection buffer (20 mM Tris pH 7.6, 0.01% NP-40, 6 mM EDTA with 2 nM terbium labeled anti-phospho-ERM). After an incubation of 1 hour at room temperature, the plate was read on an Envision with an excitation wavelength of 340 nm and a reading emission at both 520 nm and 495 nm. The ratio of the 520 nm and 495 nm emission was used to analyze the data. Inhibition of mutant G2019S LRRK2 (Invitrogen cat # PV4881) was measured in the exact same method. All final concentrations of substrate ATP and enzyme were the same.

The target of the next assay is mutant G2019S LRRK2 (Homo sapiens, UniProt Q5S007, G2019S). Description: LRRK2 Assay, Format 2 (Lantha Screen), G2019S mutant. Format: biochemical. The arrangement: purchased Invitrogen PV4881. Particulars: geometric mean of 2-4 determinations unless otherwise indicated (a: >=5; b: single determination); read-out: LRRK2, Format 2 G2019S IC50. As to the method: as §1
Chain of mutant G2019S LRRK2 (Q5S007 970-2527 G2019S limits assumed): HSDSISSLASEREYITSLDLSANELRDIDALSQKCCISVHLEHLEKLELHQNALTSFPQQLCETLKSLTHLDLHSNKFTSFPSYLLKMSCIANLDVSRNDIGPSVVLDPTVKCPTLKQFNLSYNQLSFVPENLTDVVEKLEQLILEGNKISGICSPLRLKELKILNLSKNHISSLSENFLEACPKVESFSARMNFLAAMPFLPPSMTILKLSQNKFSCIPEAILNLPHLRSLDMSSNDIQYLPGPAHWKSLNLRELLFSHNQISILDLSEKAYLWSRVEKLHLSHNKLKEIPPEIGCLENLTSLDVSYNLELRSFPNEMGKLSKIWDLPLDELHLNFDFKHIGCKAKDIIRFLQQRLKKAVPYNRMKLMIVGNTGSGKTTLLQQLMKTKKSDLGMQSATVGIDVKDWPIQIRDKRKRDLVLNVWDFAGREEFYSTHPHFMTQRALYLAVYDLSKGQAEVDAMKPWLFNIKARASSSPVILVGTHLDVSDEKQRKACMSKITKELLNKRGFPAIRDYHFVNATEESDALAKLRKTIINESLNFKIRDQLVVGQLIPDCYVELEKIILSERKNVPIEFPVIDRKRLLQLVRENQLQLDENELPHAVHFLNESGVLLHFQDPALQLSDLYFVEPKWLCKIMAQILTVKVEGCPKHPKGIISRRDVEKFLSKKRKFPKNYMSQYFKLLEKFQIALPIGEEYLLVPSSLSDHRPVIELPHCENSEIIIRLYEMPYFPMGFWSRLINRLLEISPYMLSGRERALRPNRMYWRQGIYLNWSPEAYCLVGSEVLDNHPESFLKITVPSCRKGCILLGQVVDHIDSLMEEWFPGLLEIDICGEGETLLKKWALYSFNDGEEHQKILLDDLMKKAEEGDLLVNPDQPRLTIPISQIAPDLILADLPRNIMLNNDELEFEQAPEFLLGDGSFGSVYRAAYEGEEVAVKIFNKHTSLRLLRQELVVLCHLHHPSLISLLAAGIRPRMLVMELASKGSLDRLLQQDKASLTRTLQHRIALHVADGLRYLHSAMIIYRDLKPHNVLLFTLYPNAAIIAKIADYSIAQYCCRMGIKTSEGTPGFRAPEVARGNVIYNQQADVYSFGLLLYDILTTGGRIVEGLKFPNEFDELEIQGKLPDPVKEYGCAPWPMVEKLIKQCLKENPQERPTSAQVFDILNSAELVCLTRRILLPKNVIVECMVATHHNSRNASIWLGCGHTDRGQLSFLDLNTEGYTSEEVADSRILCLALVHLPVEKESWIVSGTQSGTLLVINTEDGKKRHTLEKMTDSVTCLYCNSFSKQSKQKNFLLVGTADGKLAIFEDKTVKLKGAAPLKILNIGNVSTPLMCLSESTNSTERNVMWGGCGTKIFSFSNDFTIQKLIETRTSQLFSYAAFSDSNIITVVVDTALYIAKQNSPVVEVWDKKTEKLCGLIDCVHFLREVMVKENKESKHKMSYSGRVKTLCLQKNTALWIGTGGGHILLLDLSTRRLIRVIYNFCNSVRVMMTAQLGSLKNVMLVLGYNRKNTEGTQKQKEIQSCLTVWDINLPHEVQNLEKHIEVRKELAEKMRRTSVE

T1 sequence (Q5S007 970-2527 limits assumed): as the sequence (Q5S007 970-2527 G2019S limits assumed) above, with S1050G counted along it

Usually IC50 stands for the midpoint of a concentration-inhibition curve. In the case of `C[C@@H]1C[C@H](n2c(Cc3cnns3)nc3cnc4ccc(Cl)cc4c32)CCO1` [Example 193, 8-chloro-1-[(2R,4R)-2-methyltetrahydro-2H-pyran-4-yl]-2-(1,2,3-thiadiazol-5-ylmethyl)-1H-imidazo[4,5-c]quinoline], the half-inhibitory concentration (IC50) in assay [1] was 37.3 nM; at mutant G2019S LRRK2, 32.6 nM.

With `Cc1nn2cc(Cc3nc4cnc5ccc(C#N)cc5c4n3[C@@H]3CC[C@H](F)C3)nc2s1` (single isomer, unassigned; ent-2) [Example 169, 1-(cis-3-fluorocyclopentyl)-2-[(2-methylimidazo[2,1-b][1,3,4]thiadiazol-6-yl)methyl]-1H-imidazo[4,5-c]quinoline-8-carbonitrile, ENT-2], the IC50 turned out to be 3.59 nM in assay [1] and 5.55 nM on mutant G2019S LRRK2.

As to `C[C@@H]1C[C@H](n2c(Cc3cnccn3)nc3cnc4ccc(C#N)cc4c32)CCO1` [Example 98, 1-[(2R,4R)-2-Methyltetrahydro-2H-pyran-4-yl]-2-(pyrazin-2-ylmethyl)-1H-imidazo[4,5-c]quinoline-8-carbonitrile, formate salt], the IC50 in assay [1] was 7.56 nM; on mutant G2019S LRRK2 it was 6.16 nM.

Take `Cc1cc(Cc2nc3cnc4ccc(C#N)cc4c3n2C2CCCC2(F)F)no1` (single isomer, unassigned; ent-1) [Example 143, 1-(2,2-difluorocyclopentyl)-2-[(5-methyl-1,2-oxazol-3-yl)methyl]-1H-imidazo[4,5-c]quinoline-8-carbonitrile, ENT-1]: in assay [1], the midpoint of inhibition, the IC50, lay at 53.9 nM.

With `N#Cc1ccc2ncc3nc(Cn4cc(C5CC5)nn4)n([C@@H]4CC[C@H](F)C4)c3c2c1` (single isomer, unassigned; ent-1) [Example 202, 2-[(4-cyclopropyl-1H-1,2,3-triazol-1-yl)methyl]-1-(cis-3-fluorocyclopentyl)-1H-imidazo[4,5-c]quinoline-8-carbonitrile, ENT-1], the values for the IC50 (in assay [1]; at mutant G2019S LRRK2) were 15.5 nM and 20.4 nM, respectively.

With `Cc1cc(Cc2nc3cnc4ccc(C#N)cc4c3n2[C@@H]2CC[C@H](F)C2)no1` (single isomer, unassigned) [Example 97], the IC50 in assay [1] stood at 5.14 nM; on mutant G2019S LRRK2 it was 7.79 nM.

Turning to `FCCn1c(Cc2cnccn2)nc2cnc3ccc(Cl)cc3c21` [Example 182, 8-chloro-1-(2-fluoroethyl)-2-(pyrazin-2-ylmethyl)-1H-imidazo[4,5-c]quinoline], in assay [1], it took 67.4 nM to reach half-maximal inhibition (IC50).

Turning to `C[C@@H]1C[C@H](n2c(Cc3cn4ccccc4n3)nc3cnc4ccc(Cl)cc4c32)CCO1` [Example 167, 8-chloro-2-(imidazo[1,2-a]pyridin-2-ylmethyl)-1-[(2R,4R)-2-methyltetrahydro-2H-pyran-4-yl]-1H-imidazo[4,5-c]quinoline, trifluoroacetate salt], the IC50 was determined as 8.26 nM in assay [1] and 8.43 nM on mutant G2019S LRRK2.

In the case of `C[C@@H]1C[C@H](n2c(C(F)c3csnn3)nc3cnc4ccc(Cl)cc4c32)CCO1` (stereo partly drawn) [Example 220, 8-chloro-2-[fluoro(1,2,3-thiadiazol-4-yl)methyl]-1-[(2R,4R)-2-methyltetrahydro-2H-pyran-4-yl]-1H-imidazo[4,5-c]quinoline, formate salt], the IC50 was found to be 4.81 nM in assay [1] and 5.03 nM on mutant G2019S LRRK2.

On to `Cc1cnn(Cc2nc3cnc4ccc(C#N)cc4c3n2[C@@H]2CCN(C)C2)c1` [Example 194, 2-[(4-methyl-1H-pyrazol-1-yl)methyl]-1-[(3R)-1-methylpyrrolidin-3-yl]-1H-imidazo[4,5-c]quinoline-8-carbonitrile], for which the IC50 in assay [1] is 19.9 nM; on mutant G2019S LRRK2, 25.1 nM.

Turning to `C[C@@H]1C[C@H](n2c(Cn3cc(C4CC4)nn3)nc3cnc4ccc(C#N)cc4c32)CCO1` [Example 125, 2-[(4-cyclopropyl-1H-1,2,3-triazol-1-yl)methyl]-1-[(2R,4R)-2-methyltetrahydro-2H-pyran-4-yl]-1H-imidazo[4,5-c]quinoline-8-carbonitrile, formate salt], the results for the 50% inhibitory concentration (IC50) (in assay [1]; at mutant G2019S LRRK2) were 7 nM and 6.19 nM, respectively.

For `Cc1cc(Cc2nc3cnc4ccc(C#N)cc4c3n2[C@H]2CCN(C)C2)no1` [Example 218, 2-[(5-methyl-1,2-oxazol-3-yl)methyl]-1-[(3S)-1-methylpyrrolidin-3-yl]-1H-imidazo[4,5-c]quinoline-8-carbonitrile, formate salt], the IC50 amounted to 21.4 nM in assay [1] and 32.2 nM at mutant G2019S LRRK2.

Regarding `Cc1ccn2cc(Cc3nc4cnc5ccc(Cl)cc5c4n3[C@@H]3CCO[C@H](C)C3)nc2n1` [Example 159, 8-chloro-2-[(7-methylimidazo[1,2-a]pyrimidin-2-yl)methyl]-1-[(2R,4R)-2-methyltetrahydro-2H-pyran-4-yl]-1H-imidazo[4,5-c]quinoline], the IC50 in assay [1] stood at 6.06 nM; at mutant G2019S LRRK2 it was 6.15 nM.

Take `CC(F)(F)Cn1c(Cc2cscn2)nc2cnc3ccc(C#N)cc3c21` [Example 224, 1-(2,2-difluoropropyl)-2-(1,3-thiazol-4-ylmethyl)-1H-imidazo[4,5-c]quinoline-8-carbonitrile]: the IC50 turned out to be 9.15 nM in assay [1] and 11.1 nM on mutant G2019S LRRK2.

Molecule `CO[C@H]1C[C@H](n2c(Cn3cc(C)nn3)nc3cnc4ccc(Cl)cc4c32)C1` [Example 188, 8-chloro-1-[(1r,3r)-3-methoxycyclobutyl]-2-[(4-methyl-1H-1,2,3-triazol-1-yl)methyl]-1H-imidazo[4,5-c]quinoline] had an IC50 in assay [1] of 110 nM.

As to `CO[C@H]1C[C@@H](n2c(Cn3cc(C)nn3)nc3cnc4ccc(Cl)cc4c32)C1` [Example 183, 8-chloro-1-[(1s,3s)-3-methoxycyclobutyl]-2-[(4-methyl-1H-1,2,3-triazol-1-yl)methyl]-1H-imidazo[4,5-c]quinoline], the IC50 stood at 33.8 nM in assay [1] and 30.8 nM on mutant G2019S LRRK2.

With `C[C@@H]1C[C@H](n2c(Cc3cn(C)cn3)nc3cnc4ccc(C#N)cc4c32)CCO1` [Example 235, 2-[(1-methyl-1H-imidazol-4-yl)methyl]-1-[(2R,4R)-2-methyltetrahydro-2H-pyran-4-yl]-1H-imidazo[4,5-c]quinoline-8-carbonitrile, formate salt], the IC50 in assay [1] was determined as 10.6 nM; at mutant G2019S LRRK2 it was 9.43 nM.

As for `Cc1ccc(Cc2nc3cnc4ccc(C#N)cc4c3n2[C@@H]2CCO[C@H](C)C2)nc1` [Example 232, 2-[(5-methylpyridin-2-yl)methyl]-1-[(2R,4R)-2-methyltetrahydro-2H-pyran-4-yl]-1H-imidazo[4,5-c]quinoline-8-carbonitrile], the IC50 in assay [1] came out at 8.48 nM; on mutant G2019S LRRK2, 7.26 nM.

For the molecule `C[C@@H]1C[C@H](n2c(CC#N)nc3cnc4ccc(C#N)cc4c32)CCO1` [Example 117, 2-(cyanomethyl)-1-[(2R,4R)-2-methyltetrahydro-2H-pyran-4-yl]-1H-imidazo[4,5-c]quinoline-8-carbonitrile], the values for the IC50 (in assay [1]; on mutant G2019S LRRK2) were 16.8 nM and 19.6 nM, respectively.

In the case of `Cc1cn(Cc2nc3cnc4ccc(Cl)cc4c3n2C2CCC2(F)F)nn1` (stereo not shown) [Example 187, 8-chloro-1-(2,2-difluorocyclobutyl)-2-[(4-methyl-1H-1,2,3-triazol-1-yl)methyl]-1H-imidazo[4,5-c]quinoline], the IC50 in assay [1] came out at 28.1 nM; at mutant G2019S LRRK2, 33.3 nM.

As for `CCC(F)(F)Cn1c(Cc2cnccn2)nc2cnc3ccc(Cl)cc3c21` [Example 184, 8-chloro-1-(2,2-difluorobutyl)-2-(pyrazin-2-ylmethyl)-1H-imidazo[4,5-c]quinoline], the IC50 in assay [1] was 34.3 nM; on mutant G2019S LRRK2, 22.8 nM.

In assay [1], `C[C@@H]1C[C@H](n2c(Cc3nc(C4CC4)n(C)n3)nc3cnc4ccc(Cl)cc4c32)CCO1` [Example 191, 8-chloro-2-[(5-cyclopropyl-1-methyl-1H-1,2,4-triazol-3-yl)methyl]-1-[(2R,4R)-2-methyltetrahydro-2H-pyran-4-yl]-1H-imidazo[4,5-c]quinoline] registered an IC50 of 73.5 nM.

The molecule `Cc1cc(Cc2nc3cnc4ccc(Cl)cc4c3n2CCF)no1` [Example 181, 8-chloro-1-(2-fluoroethyl)-2-[(5-methyl-1,2-oxazol-3-yl)methyl]-1H-imidazo[4,5-c]quinoline] yielded an IC50 in assay [1] of 99.5 nM.

As for `C[C@@H]1C[C@H](n2c(Cc3cn4c(n3)COCC4)nc3cnc4ccc(Cl)cc4c32)CCO1` [Example 192, 8-chloro-2-(5,6-dihydro-8H-imidazo[2,1-c][1,4]oxazin-2-ylmethyl)-1-[(2R,4R)-2-methyltetrahydro-2H-pyran-4-yl]-1H-imidazo[4,5-c]quinoline], half-maximal inhibition in assay [1] (IC50) was put at 12.6 nM.

On to `CCC(F)(F)Cn1c(Cc2noc(C)n2)nc2cnc3ccc(Cl)cc3c21` [Example 185, 8-chloro-1-(2,2-difluorobutyl)-2-[(5-methyl-1,2,4-oxadiazol-3-yl)methyl]-1H-imidazo[4,5-c]quinoline], for which, in assay [1], the midpoint of inhibition, the IC50, lay at 73.2 nM.
